In patent US7262212B2, “2,3-dihydro-6-nitroimidazo[2,1-b]oxazoles” (Otsuka Pharmaceutical Co., Ltd., priority 2002, dated 2007):

Row | Compound | melting point
1 | CC(C)(C)OC(=O)N1CCN(C(=O)OC[C@@]2(C)Cn3cc([N+](=O)[O-])nc3O2)CC1 | 211 to 212 °C
2 | O=C(Nc1ccc(Cl)cc1)N1CCC2(CC1)Cn1cc([N+](=O)[O-])nc1O2 | 249 to 252 °C (dec.)
3 | CC(C)(C)OC(=O)N1CCN(C(=O)c2ccc(OC[C@@]3(C)Cn4cc([N+](=O)[O-])nc4O3)cc2)CC1 | 222.5 to 224 °C
4 | CC(C)(C)OC(=O)N1CCN(c2ccc(OC[C@@]3(C)Cn4cc([N+](=O)[O-])nc4O3)cc2Cl)CC1 | 207 to 209.5 °C
5 | CC(C)(C)OC(=O)N1CCN(c2cccc(OC[C@@]3(C)Cn4cc([N+](=O)[O-])nc4O3)c2)CC1 | 179.5 to 182 °C
6 | CC(C)(C)OC(=O)N1CCN(c2ccc(OC[C@@]3(C)Cn4cc([N+](=O)[O-])nc4O3)cc2)CC1 | 230 to 232 °C
7 | C[C@]1(COc2ccc(N3CCN(C(=O)OCc4ccc(Cl)cc4)CC3)cc2)Cn2cc([N+](=O)[O-])nc2O1 | 184.5 to 187.5 °C
8 | C[C@]1(COc2cccc(N3CCN(C(=O)OCc4ccc(OC(F)(F)F)cc4)CC3)c2)Cn2cc([N+](=O)[O-])nc2O1 | 136.5 to 138 °C
9 | C[C@]1(COc2ccc(C3=CCN(Cc4ccc(OC(F)(F)F)cc4)CC3)cc2)Cn2cc([N+](=O)[O-])nc2O1 | 168 to 174 °C
10 | C[C@]1(COc2ccc(N3CCN(C(=O)c4ccc(OC(F)(F)F)cc4)CC3)cc2)Cn2cc([N+](=O)[O-])nc2O1 | 201.5 to 203.2 °C
11 | CN(CCN1CCN(C(=O)OC(C)(C)C)CC1)C[C@@]1(C)Cn2cc([N+](=O)[O-])nc2O1 | 149.5 to 151.8 °C
12 | CN(C[C@@]1(C)Cn2cc([N+](=O)[O-])nc2O1)c1ccccc1 | 147 to 148 °C
13 | CC1(CNC(=O)OCc2ccccc2)Cn2cc([N+](=O)[O-])nc2O1 (stereo not drawn) | 171.3 to 172.2 °C
14 | CN(CC1(C)Cn2cc([N+](=O)[O-])nc2O1)C(=O)OCc1ccccc1 (stereo not drawn) | 150.3 to 151.6 °C
15 | CCOC(=O)NCC1(C)Cn2cc([N+](=O)[O-])nc2O1 (stereo not drawn) | 182.5 to 183.4 °C
16 | O=C(NCC1Cn2cc([N+](=O)[O-])nc2O1)OCc1ccc(F)cc1 (stereo not drawn) | 164.6 to 165.1 °C
17 | C[C@]1(CN2CCC(N3CCCCC3)CC2)Cn2cc([N+](=O)[O-])nc2O1 | 163.4 to 164.9 °C
18 | CC(C)COC(=O)N1CCN(CC2(C)Cn3cc([N+](=O)[O-])nc3O2)CC1 (stereo not drawn) | 176.5 to 177.3 °C
19 | CC1(CO)Cn2cc([N+](=O)[O-])nc2O1 (stereo not drawn) | 166 to 168 °C
20 | CC1(CN2CCN(C(=O)OCc3ccc(C(=O)c4ccccc4)cc3)CC2)Cn2cc([N+](=O)[O-])nc2O1 (stereo not drawn) | 105 to 107 °C
21 | O=[N+]([O-])c1cn2c(n1)O[C@@H](CN1CCN(Cc3ccc(-c4ccccc4)cc3)CC1)C2 | 207 to 208 °C
22 | O=[N+]([O-])c1cn2c(n1)O[C@H](CN1CCN(Cc3ccc(-c4ccccc4)cc3)CC1)C2 | 224 to 225 °C
23 | CC1(CN2CCN(C(=O)c3ccc(-c4ccccc4)cc3)CC2)Cn2cc([N+](=O)[O-])nc2O1 (stereo not drawn) | 116 to 118 °C

Row | Compound | melting point
24 | CC1(CN2CCN(C(=O)COc3ccccc3)CC2)Cn2cc([N+](=O)[O-])nc2O1 (stereo not drawn) | 158 to 160.6 °C
25 | C[C@]1(CN2CCN(C(=O)OCC=Cc3cccc(Cl)c3)CC2)Cn2cc([N+](=O)[O-])nc2O1.O=C(O)/C=C\C(=O)O | 150 to 151 °C
26 | CC1(CN2CCN(C(=O)Nc3ccc(Cl)cc3)CC2)Cn2cc([N+](=O)[O-])nc2O1 (stereo not drawn) | 185 to 188 °C (dec.)
27 | CCCCCC(C=NN1CCN(CC2(C)Cn3cc([N+](=O)[O-])nc3O2)CC1)=Cc1ccccc1 (stereo not drawn) | 166.6 to 169.6 °C
28 | CC(C)(C)OC(=O)CNC(=O)OCC1(C)Cn2cc([N+](=O)[O-])nc2O1 (stereo not drawn) | 104 to 106 °C
29 | CC1(Cn2nc(-c3ccc(Cl)cc3)oc2=O)Cn2cc([N+](=O)[O-])nc2O1 (stereo not drawn) | 221 to 222 °C
30 | CC1(Cn2nc(C=Cc3ccc(Cl)cc3)oc2=O)Cn2cc([N+](=O)[O-])nc2O1 (stereo not drawn) | 249 to 252 °C
31 | CC1(Cn2nc(Cc3ccc(Cl)cc3)oc2=O)Cn2cc([N+](=O)[O-])nc2O1 (stereo not drawn) | 151 to 153 °C
32 | O=c1oc(-c2ccc(OC(F)(F)F)cc2)nn1CC1Cn2cc([N+](=O)[O-])nc2O1 (stereo not drawn) | 204 to 207 °C
33 | CC(C)(C)OC(=O)N1CCC(n2c(=O)n(CC3(C)Cn4cc([N+](=O)[O-])nc4O3)c3ccccc32)CC1 (stereo not drawn) | 218 to 219.1 °C
34 | CCOC(=O)c1ccc2c(c1)n(CC1(C)Cn3cc([N+](=O)[O-])nc3O1)c(=O)n2C (stereo not drawn) | 265.8 to 266.7 °C
35 | CC1(Cn2c(=O)n(-c3ccc(F)cc3)c3ccccc32)Cn2cc([N+](=O)[O-])nc2O1 (stereo not drawn) | 254.1 to 254.7 °C
36 | CC1(COC(=O)Nc2cccc(F)c2)Cn2cc([N+](=O)[O-])nc2O1 (stereo not drawn) | 168 to 169 °C
37 | COc1ccc(CN2CCN(CC3(C)Cn4cc([N+](=O)[O-])nc4O3)C2=O)c(OC)c1 (stereo not drawn) | 175 to 175.4 °C
38 | CC1(CN2C(=O)C(F)(F)c3ccccc32)Cn2cc([N+](=O)[O-])nc2O1 (stereo not drawn) | 202 to 206 °C
39 | CC1(COC(=O)Nc2ccc(Cl)cc2)Cn2cc([N+](=O)[O-])nc2O1 (stereo not drawn) | 179 to 181 °C
40 | CC1(CN2C(=O)c3ccccc3C2=O)Cn2cc([N+](=O)[O-])nc2O1 (stereo not drawn) | 264.6 to 268.3 °C
41 | CC1(CN2CCN(C(C)(C)C)C(=O)C2)Cn2cc([N+](=O)[O-])nc2O1 (stereo not drawn) | 193 to 194 °C
42 | CC1(CCCN2CCN(C(C)(C)C)C(=O)C2)Cn2cc([N+](=O)[O-])nc2O1 (stereo not drawn) | 147 to 149 °C (dec.)
43 | C[C@]1(CN2CCC3(CC2)OCCO3)Cn2cc([N+](=O)[O-])nc2O1 | 166.5 to 168.2 °C
44 | CC(C)(C)OC(=O)N1CCN(CC(=O)N2CCC3(CC2)Cn2cc([N+](=O)[O-])nc2O3)CC1 | 211 to 213 °C
45 | CC(=O)N1CCC2(CC1)Cn1cc([N+](=O)[O-])nc1O2 | 232 to 234 °C
46 | CN1CCC2(CC1)Cn1cc([N+](=O)[O-])nc1O2 | 237 to 239 °C (dec.)

Next, values leading:

Row | melting point | Compound
47 | 169 to 171 °C | C[C@]1(COC(=O)N2CC=C(c3ccc(C(F)(F)F)cc3)CC2)Cn2cc([N+](=O)[O-])nc2O1
48 | 131 to 132 °C | C[C@]1(CN2CCC(N3CCC(Oc4ccc(OC(F)(F)F)cc4)CC3)CC2)Cn2cc([N+](=O)[O-])nc2O1
49 | 105 to 106 °C | C[C@]1(CN2CCN(C3CCN(C(=O)OCc4ccc(OC(F)(F)F)cc4)CC3)CC2)Cn2cc([N+](=O)[O-])nc2O1
50 | 186 to 188 °C | C[C@]1(COc2ccc(C3CCN(Cc4ccc(OC(F)(F)F)cc4)CC3)cc2)Cn2cc([N+](=O)[O-])nc2O1
51 | 123 to 126 °C | CN(CCOc1ccc(C(F)(F)F)cc1)C[C@@]1(C)Cn2cc([N+](=O)[O-])nc2O1
52 | 135.5 to 137.5 °C | CN(CCN(C)c1ccc(C(F)(F)F)cc1)C[C@@]1(C)Cn2cc([N+](=O)[O-])nc2O1
53 | 84.2 to 86.8 °C | CNC(C1CCN(C(=O)OCc2ccc(OC(F)(F)F)cc2)CC1)[C@]1(C)Cn2cc([N+](=O)[O-])nc2O1 (stereo partly drawn)
54 | 138.7 to 139.2 °C | CN(C(=O)OCc1ccccc1)C1CCN(CC2(C)Cn3cc([N+](=O)[O-])nc3O2)CC1 (stereo not drawn)
55 | 147.2 to 149.2 °C | CN(C(=O)OCc1ccc(Cl)cc1)C1CCN(CC2(C)Cn3cc([N+](=O)[O-])nc3O2)CC1 (stereo not drawn)
56 | 143.5 to 145 °C | CC1(CN2CCC(Cc3ccc(OC(F)(F)F)cc3)CC2)Cn2cc([N+](=O)[O-])nc2O1 (stereo not drawn)
57 | 165 to 167 °C | CC1(CN2CCC(C(=O)c3ccc(Cl)cc3)CC2)Cn2cc([N+](=O)[O-])nc2O1 (stereo not drawn)
58 | 111 to 112.5 °C | C[C@]1(CN2CCC(Cc3ccc(OC(F)(F)F)cc3)CC2)Cn2cc([N+](=O)[O-])nc2O1
59 | 138.7 to 139.9 °C | C[C@]1(CN2CCC(c3ccc(C(F)(F)F)cc3)CC2)Cn2cc([N+](=O)[O-])nc2O1
60 | 84.6 to 86.8 °C | C[C@]1(CN2CCC(OCCc3ccc(C(F)(F)F)cc3)CC2)Cn2cc([N+](=O)[O-])nc2O1
61 | 92.5 to 94 °C | C[C@]1(CN2CCC(OCCc3ccc(Cl)cc3)CC2)Cn2cc([N+](=O)[O-])nc2O1
62 | 156.2 to 158.5 °C | C[C@]1(CN2CCC(NC(=O)OCc3ccc(OC(F)(F)F)cc3)CC2)Cn2cc([N+](=O)[O-])nc2O1

Row | melting point | Compound
63 | 139 to 140 °C | CC1(CCN2CCN(C(=O)OCc3ccc(C(F)(F)F)cc3)CC2)Cn2cc([N+](=O)[O-])nc2O1 (stereo not drawn)
64 | 130 to 133 °C | CC1(CCCN2CCN(C(=O)OCc3ccc(C(F)(F)F)cc3)CC2)Cn2cc([N+](=O)[O-])nc2O1 (stereo not drawn)
65 | 166 °C (dec.) | CC1(CN2CCN(C(=O)OCC#Cc3ccc(C(F)(F)F)cc3)CC2)Cn2cc([N+](=O)[O-])nc2O1.O=C(O)/C=C\C(=O)O (stereo not drawn)
66 | 118 to 120 °C | CSc1ccc(COC(=O)N2CCN(CC3(C)Cn4cc([N+](=O)[O-])nc4O3)CC2)cc1 (stereo not drawn)
67 | 101 to 102 °C | CC(=O)c1ccc(COC(=O)N2CCN(CC3(C)Cn4cc([N+](=O)[O-])nc4O3)CC2)cc1 (stereo not drawn)
68 | 137 to 138 °C | C[C@]1(CN2CCN(Cc3ccc(OC(F)(F)F)cc3)CC2)Cn2cc([N+](=O)[O-])nc2O1
69 | 93 to 95 °C | C[C@@]1(CN2CCN(Cc3ccc(C(F)(F)F)cc3)CC2)Cn2cc([N+](=O)[O-])nc2O1
70 | 184 to 187 °C | CC1(CN2CCN(C(=O)Cc3ccc(Cl)cc3)CC2)Cn2cc([N+](=O)[O-])nc2O1 (stereo not drawn)
71 | 183 to 184 °C | C[C@]1(CN2CCN(C(=O)c3ccc(C(F)(F)F)cc3)CC2)Cn2cc([N+](=O)[O-])nc2O1
72 | 145 to 146 °C | C[C@]1(CN2CCN(C(=O)CCCc3ccc(C(F)(F)F)cc3)CC2)Cn2cc([N+](=O)[O-])nc2O1
73 | 201 to 202.5 °C | CC1(CN2CCN(C(=O)NCc3ccc(C(F)(F)F)cc3)CC2)Cn2cc([N+](=O)[O-])nc2O1 (stereo not drawn)
74 | 156 to 159 °C (dec.) | C[C@]1(CN2CCN(C(=O)Nc3ccc(Cl)cc3)CC2)Cn2cc([N+](=O)[O-])nc2O1
75 | 168.4 to 171.7 °C | C[C@]1(CN2CCN(C(=O)N3CC=C(c4ccc(C(F)(F)F)cc4)CC3)CC2)Cn2cc([N+](=O)[O-])nc2O1
76 | 230 to 231 °C | CC1(Cn2nc(-c3ccc(C(F)(F)F)cc3)oc2=O)Cn2cc([N+](=O)[O-])nc2O1 (stereo not drawn)
77 | 232.4 to 234.7 °C | Cn1c(=O)n(CC2(C)Cn3cc([N+](=O)[O-])nc3O2)c2cc(C(F)(F)F)ccc21 (stereo not drawn)
78 | 123.5 to 124 °C | C[C@]1(CN2CCN(C(=O)OCC(F)(F)F)CC2)Cn2cc([N+](=O)[O-])nc2O1
